We go through 20 compounds from PubChem BioAssay (NCI).

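Growth conditions: 96-well plates. Treatment: test compound, 48 hours, 5 concentrations. Analysis: linear interpolation between bracketing concentrations; unreached endpoints set to highest concentration. GI50 is the concentration that inhibits growth by half. TGI: concentration producing complete growth inhibition.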

Among the test systems are RXF-631 renal; MDA-N; DMS 114 small cell lung; KM20L2 colon; M19-MEL melanoma; XF 498 CNS; DLD-1 colon; HOP-18 NSCLC; SNB-78 CNS.
Common to all, as to test: NCI-60 cell line screen, 48 h

Turning to `COc1ccc(OC)c2c(=S)c3ccccc3[nH]c12`, the TGI with RXF-631 renal, with MDA-N, with DMS 114 small cell lung, in the assay on KM20L2 colon, with M19-MEL melanoma and in the assay on XF 498 CNS was more than 100 µM throughout. In the assay with DLD-1 colon, this compound came in with a TGI of more than 100 µM.
As for `NS(=O)(=O)c1ccc(NC(=O)c2cccc3cc4ccccc4nc23)cc1`, the TGI in the assay on RXF-631 renal, with MDA-N, in the assay with DMS 114 small cell lung, in the assay with KM20L2 colon, in the assay on M19-MEL melanoma and in the assay with XF 498 CNS was more than 100 µM in each case. Also, the TGI in the assay with DLD-1 colon, in the assay with HOP-18 NSCLC and with SNB-78 CNS was more than 100 µM throughout.
Turning to `CS(=O)(=O)OCCN(CCOS(C)(=O)=O)c1ccc(C=O)cc1`, the TGI with MDA-N was 27.2 µM; in the assay with DMS 114 small cell lung, 28.2 µM; in the assay on KM20L2 colon it was 17.8 µM; in the assay with M19-MEL melanoma, 30.2 µM; with XF 498 CNS it was 5.85 µM; in the assay with DLD-1 colon, more than 84 µM. In addition, the values for the TGI with HOP-18 NSCLC and in the assay with SNB-78 CNS were 48.8 µM and more than 100 µM, respectively.
In the case of `CC(=O)/C=C/c1ccc(C)cc1`, the TGI in the assay on DMS 114 small cell lung, with KM20L2 colon, with M19-MEL melanoma, with DLD-1 colon, in the assay with HOP-18 NSCLC and in the assay on SNB-78 CNS was more than 100 µM throughout.
`O=c1c2ccccc2nc(-c2cccc(Cl)c2)n1NCC1(O)OCC(O)C(O)C1O` (stereo unspecified): the TGI with RXF-631 renal, in the assay on DMS 114 small cell lung, with KM20L2 colon, in the assay on M19-MEL melanoma and with SNB-78 CNS was more than 100 µM throughout.
As for `O=C(/C=C/c1ccccc1Cl)c1ccc(Cl)cc1Cl`, the TGI was determined as 34.6 µM with RXF-631 renal; 26.3 µM with DMS 114 small cell lung; 28.3 µM in the assay with KM20L2 colon; 31.9 µM in the assay with M19-MEL melanoma; 32.3 µM in the assay with DLD-1 colon; 31.2 µM in the assay on HOP-18 NSCLC. The same compound yielded a TGI with SNB-78 CNS of 36.2 µM.
For `Cc1ccc(Oc2ccc([N+](=O)[O-])cc2[N+](=O)[O-])c(C)c1`, the TGI with RXF-631 renal, in the assay on DMS 114 small cell lung, in the assay with M19-MEL melanoma, with XF 498 CNS, in the assay on DLD-1 colon and in the assay on SNB-78 CNS was more than 100 µM throughout.
With `Cc1cc(N(CCCl)CCCl)ccc1/C=N/NC(=O)Cc1cc(=O)oc2cc(O)ccc12`, the TGI in the assay on MDA-N was determined as 32.4 µM.
In the case of `COc1cc2c(cn1)[nH]c1ccccc12`, the TGI in the assay with RXF-631 renal, with DMS 114 small cell lung, with KM20L2 colon, in the assay with XF 498 CNS, with DLD-1 colon and with HOP-18 NSCLC was more than 100 µM throughout. The compound further registered a TGI in the assay with SNB-78 CNS of more than 100 µM.
Turning to `C1=Nc2ccccc2C=Nc2ccccc2C=Nc2ccccc2C=Nc2ccccc21.[Cl-].[Pt+2]`, the GI50 is 30.9 µM with RXF-631 renal; 12.1 µM in the assay on DMS 114 small cell lung; 21 µM in the assay with KM20L2 colon; 22.2 µM in the assay with M19-MEL melanoma; 18.4 µM with XF 498 CNS; 17.8 µM with DLD-1 colon. Also, in the assay with HOP-18 NSCLC, the GI50 was 22.3 µM. The TGI with RXF-631 renal is 77.9 µM; in the assay with DMS 114 small cell lung, 46.2 µM; in the assay with KM20L2 colon it was 58 µM; in the assay with M19-MEL melanoma it was more than 100 µM; with XF 498 CNS it was 51.1 µM; in the assay on DLD-1 colon, 98.4 µM. Also, in the assay on HOP-18 NSCLC, the TGI was more than 100 µM.
For the compound `Cc1c2c(cc3c(=O)ccn(CCN(C)C)c13)c(=O)ccn2CCN(C)C`, the TGI in the assay with DMS 114 small cell lung is 30.1 µM; with KM20L2 colon, 20.8 µM; with M19-MEL melanoma it was 30.2 µM; in the assay with XF 498 CNS it was 22.9 µM; with DLD-1 colon, 28.7 µM; in the assay on HOP-18 NSCLC, 58.6 µM. This compound also returned a TGI in the assay on SNB-78 CNS of more than 100 µM.
Regarding `Cc1cccc(C)c1NC(=O)CCc1n[nH]c(=S)o1`, the TGI in the assay with DMS 114 small cell lung, in the assay on KM20L2 colon, with M19-MEL melanoma, in the assay with DLD-1 colon, in the assay with HOP-18 NSCLC and with SNB-78 CNS was more than 100 µM throughout.
Compound `COc1ccc(/C=C/NC=O)cc1` came in with a TGI in the assay on MDA-N of more than 100 µM.
Take `C=C1C(=O)OC2CC(C)C3C=CC(=O)C3CC12` (stereo unspecified): the TGI with RXF-631 renal worked out at 13.7 µM; in the assay with MDA-N, 5.73 µM; in the assay on DMS 114 small cell lung, 6.22 µM; in the assay on KM20L2 colon, 12.8 µM; in the assay on M19-MEL melanoma, 9.19 µM; in the assay on XF 498 CNS, 3.4 µM. Moreover, the TGI with HOP-18 NSCLC stood at 16.9 µM; with SNB-78 CNS, 19.2 µM.
Take `Cc1ccc2c(c1)CNc1ccc(C)cc1CN2`: the TGI in the assay with DMS 114 small cell lung, in the assay on M19-MEL melanoma, with XF 498 CNS, with DLD-1 colon, with HOP-18 NSCLC and in the assay with SNB-78 CNS was more than 100 µM each time.
In the case of `COc1ccc(-c2c(N)[n+]([O-])c3ccccc3[n+]2[O-])cc1OC`, the TGI in the assay with RXF-631 renal, in the assay with DMS 114 small cell lung, in the assay on KM20L2 colon, in the assay on M19-MEL melanoma, in the assay with DLD-1 colon and in the assay with HOP-18 NSCLC was more than 100 µM in each case. For the same compound, the TGI with SNB-78 CNS is more than 100 µM.
Take `COc1cc(Nc2nc3ccc(C(F)(F)F)cc3nc2-c2ccccc2)cc(OC)c1OC`: the TGI is 26 µM in the assay with KM20L2 colon, more than 100 µM in the assay on DLD-1 colon and more than 100 µM with SNB-78 CNS.
For the compound `NNC(=O)/C(NC(=O)c1ccccc1)=C(\N)c1ccc(Cl)cc1`, the TGI in the assay with DMS 114 small cell lung, in the assay on KM20L2 colon, with M19-MEL melanoma, in the assay with DLD-1 colon, with HOP-18 NSCLC and in the assay on SNB-78 CNS was more than 100 µM each time.
`C=CC1=C(C)C2=NC1=CC1=NC(=CC3=C(C)C4=C(O)C(C(=O)OC)C(=C5NC(=C2)C(C)C5CCC(=O)OC)C4=N3)C(CC)=C1C` (stereo unspecified) displayed a TGI with MDA-N of more than 100 µM.
For `COc1ccccc1-c1cc(=O)c2ccc(OC)c(OC)c2o1`, the TGI in the assay on MDA-N is more than 100 µM.
